Peptide text beside a SMILES is read from it. * marks the point of attachment. pNA = O=[N+]([O-])c1ccc(N*)cc1
Key:
euglobulin thrombin = target: T1, euglobulin thrombin (Homo sapiens, UniProt P00734); assay: Decay constants of thrombin in plasma; assay type: biochemical
T1 construct: The euglobulin thrombin fraction was prepared from defibrinated human plasma; from tissue; host or cells: defibrinated human plasma (euglobulin fraction, acid precipitation, method of Josso and Prou-Wartelle)
Procedure: (§1) To this mixture was added 10 μL of a thrombin preparation to achieve a final concentration of 100 nM. At regular time intervals (5-10 s) 10 μL samples were subsampled into 490 μL buffer B which contained 200 μM of S2238 to determine thrombin activity. After 2 min the reaction was stopped by adding 300 μL 1M citric acid. The moment of sampling and stopping were recorded on a personal computer with pushbutton-equipped pipettes. The optical density was then read at 405 nm and the obtained amidolytic activities were used to calculate the decay constants. The obtained decay constant is the sum of the decay constants of the reaction of thrombin with antithrombin III (k1) and α2 -macroglobulin (k2).
as §1, with “Decay constants of thrombin in plasma: To 120 μL defibrinated plasma was added: 50 μL of buffer A which contained the substances to be tested. To” for “To”, “was” for “was then”

[1] = system: thrombin generation in tissue factor triggered plasma; assay: Manual determination of thrombin generation in plasma (subsampling method) and calculated prothrombinase activity; assay type: biochemical, human
Procedure: Manual determination of thrombin generation in plasma: Extrinsic pathway: To 480 μL defibrinated plasma were added: 172 μL buffer A which contains the substrate at concentrations between 0 to 2000 μM and 20 μL of a 54 μM phospholipid solution (final concentration: 1.5 μM). After incubation of 4 min at 37° C., 24 μL tissue factor (undiluted) was added. Thrombin formation started at zero time by adding 24 μL of a 0.5 M CaCl2 solution (final concentration: 16.67 mM). At regular time intervals of 12 s samples of 10 μL were subsampled as described above. From the amidolytic activities thus obtained, the thrombin generation curve can be drawn. […] Intrinsic pathway: To 480 μL defibrinated plasma were added: 168 μL buffer A which contains the substrate at concentrations between 0 to 1000 μM and 48 μL Actin FS (undiluted). This mixture was intensively mixed and incubated for 4 min at 37° C. Thrombin generation was started at zero time by adding 24 μL of a 0.5 M CaCl2 solution (final concentration: 16.67 mM).
Influence of the substrate on the prothrombinase-complex: With the obtained decay constants and from the curves obtained by the subsampling method we calculated the course of prothrombin conversion and the course of prothrombinase concentration.
Manual determination of thrombin generation in plasma: Extrinsic pathway: To 480 μL defibrinated plasma were added: 172 μL buffer A which contained the substrate at concentrations between 0 to 2000 μM and 20 μL of a 54 μM phospholipid solution (final concentration: 1.5 μM). After incubation for 4 min at 37° C., 24 μL tissue factor (undiluted) was added. Thrombin formation started at zero time by adding 24 μL of a 0.5 M CaCl2 solution (final concentration: 16.67 mM). At regular time intervals of 12 s samples of 10 μL were subsampled as described above. From the amidolytic activities thus obtained, the thrombin generation curve can be drawn.
Influence of the substrate on the prothrombinase-compzex: With the obtained decay constants and from the curves obtained by the subsampling method we calculated the course of prothrombin conversion and the course of prothrombinase concentration.

human α-thrombin = target: T2, human α-thrombin (Homo sapiens, UniProt P00734); assay: Kinetics of hydrolysis of substrates by human α-thrombin in buffer A at 37° C. (Example 2, Table 1); assay type: biochemical
T2 construct: Pure human α-thrombin; gift of Dr. T. Lindhout (University of Limburg, Maastricht)
How it was run: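 p-Nitroaniline release was followed at 405 nm (dual wavelength 405-546 nm) in buffer A at 37° C, with substrate at 1 to 2000 μM (at least six levels) preincubated 5 min before enzyme at 0.5 to 100 nM. Km and kcat came from initial velocities fitted to Michaelis-Menten by linear regression, from one or two experiments.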

thrombin = settings: Svendsen et al; cited from earlier work

With `CC(C)[C@H](N)C(=O)N[C@@H](CCCNC(=N)N)C(=O)Nc1ccc([N+](=O)[O-])cc1.Cl.Cl` [2HCl.H-Val-Arg-pNA] (H-Val-Arg-pNA) the “k1 : AT-III dependent decay of thrombin” value (euglobulin thrombin; [S] 100 μM in plasma) was 2.064 min⁻¹, the “k2 : α2 M dependent decay of thrombin” value (euglobulin thrombin; [S] 100 μM in plasma) was 0.253 min⁻¹ and the koverall (euglobulin thrombin; [S] 100 μM in plasma) was 2.317 min⁻¹. The t1/2 (euglobulin thrombin; [S] 100 μM in plasma) was 17.95 s, the “(k1,corr) = k1,corr divided by μM AT-III” value (euglobulin thrombin; [S] 200 μM in plasma) was 21430 M⁻¹ s⁻¹ and the “k1,corr : k1 after correcting for k2,M and 0.170” value (from here on “k1,corr : k1 after correcting”) (euglobulin thrombin; [S] 200 μM in plasma) was 1.750 min⁻¹. For the same compound, the “k1 : AT-III dependent decay of thrombin” value (euglobulin thrombin; [S] 200 μM in plasma) was 1.751 min⁻¹, the “k2 : α2 M dependent decay of thrombin” value (euglobulin thrombin; [S] 200 μM in plasma) was 0.402 min⁻¹ and the koverall (euglobulin thrombin; [S] 200 μM in plasma) was 2.154 min⁻¹. The t1/2 (euglobulin thrombin; [S] 200 μM in plasma) was 19.31 s, the “(k1,corr) = k1,corr divided by μM AT-III” value (euglobulin thrombin; [S] 500 μM in plasma) was 18630 M⁻¹ s⁻¹ and the “k1,corr : k1 after correcting” value (euglobulin thrombin; [S] 500 μM in plasma) was 1.521 min⁻¹. The “k1 : AT-III dependent decay of thrombin” value (euglobulin thrombin; [S] 500 μM in plasma) was 1.509 min⁻¹, the “k2 : α2 M dependent decay of thrombin” value (euglobulin thrombin; [S] 500 μM in plasma) was 0.389 min⁻¹ and the koverall (euglobulin thrombin; [S] 500 μM in plasma) was 1.898 min⁻¹. The t1/2 (euglobulin thrombin; [S] 500 μM in plasma) was 21.91 s, the “(k1,corr) = k1,corr divided by μM AT-III” value (euglobulin thrombin; [S] 1000 μM in plasma) was 18500 M⁻¹ s⁻¹ and the “k1,corr : k1 after correcting” value (euglobulin thrombin; [S] 1000 μM in plasma) was 1.510 min⁻¹. For the same compound, the “k1 : AT-III dependent decay of thrombin” value (euglobulin thrombin; [S] 1000 μM in plasma) was 1.676 min⁻¹, the “k2 : α2 M dependent decay of thrombin” value (euglobulin thrombin; [S] 1000 μM in plasma) was 0.204 min⁻¹ and the koverall (euglobulin thrombin; [S] 1000 μM in plasma) was 1.879 min⁻¹. For the same compound, the t1/2 (euglobulin thrombin; [S] 1000 μM in plasma) was 27.12 s, the “k1 : AT-III dependent decay of thrombin” value (euglobulin thrombin; [S] 1500 μM in plasma) was 1.087 min⁻¹ and the “k2 : α2 M dependent decay of thrombin” value (euglobulin thrombin; [S] 1500 μM in plasma) was 0.130 min⁻¹. The koverall (euglobulin thrombin; [S] 1500 μM in plasma) was 1.217 min⁻¹, the t1/2 (euglobulin thrombin; [S] 1500 μM in plasma) was 34.17 s and the “k1 : AT-III dependent decay of thrombin” value (euglobulin thrombin; [S] 2000 μM in plasma) was 0.877 min⁻¹. The “k2 : α2 M dependent decay of thrombin” value (euglobulin thrombin; [S] 2000 μM in plasma) was 0.128 min⁻¹, the koverall (euglobulin thrombin; [S] 2000 μM in plasma) was 1.005 min⁻¹ and the t1/2 (euglobulin thrombin; [S] 2000 μM in plasma) was 41.37 s. The “k2,M : k2 determined by the subsampling method” value (“k2,M : k2 determined” below) ([1]; [S] 200 μM in plasma) was 0.234 min⁻¹, the “k2,M : k2 determined” value ([1]; [S] 500 μM in plasma) was 0.207 min⁻¹ and the “k2,M : k2 determined” value ([1]; [S] 1000 μM in plasma) was 0.199 min⁻¹. The “influence on the prothrombinase complex / coagulation cascade” value ([1]; calculated from decay constants and manual thrombin generation curves) was “clearly decreases its concentration”, the Km (human α-thrombin) was 1240 µM and the kcat (human α-thrombin) was 0.23 s⁻¹. For the same compound, the “kcat /Km” value (human α-thrombin) was 186 M/s and the “factor by which poorer substrate for thrombin than Benzoyl-Phe-Val-Arg-p-nitroanilide” value (thrombin) was ≥ 100.
